# Measured values reported in the supplement of paper PMC10307832.
# What was measured:
# Test in all cases: relative viability (nuclei count vs DMSO), 5 days (fraction); higher = more cells survive
# [1] = tested on: NCI-H661
# In short: (§1)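 After 5 days of treatment, lung cancer cells in 1536-well plates were fixed and stained in a single step (final 0.05% Triton X-100, 1% formaldehyde, 1 ug/ml Hoechst) and their nuclei counted on 4× images. Treatment had been applied by pin tool the day after seeding as one drug alone or as a fixed anchor-drug dose with five library-drug doses (not always all listed) in √10 steps. Relative viability is the nuclei count of treated wells divided by that of vehicle wells, and values are medians of duplicate plates.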
# [2] = tested on: CAL-12T
# In short: as §1
# [3] = tested on: HCC-827
# In short: as §1
# [4] = tested on: NCI-H322M
# In short: as §1
# [5] = tested on: NCI-H520
# In short: as §1
# [6] = tested on: NCI-H1355
# In short: as §1
# [7] = tested on: ABC-1
# In short: as §1
# [8] = tested on: NCI-H1437
# In short: as §1
# [9] = tested on: HCC-15
# In short: as §1
# [10] = tested on: RERF-LC-KJ
# In short: as §1
# [11] = tested on: SW 1573
# In short: as §1
# [12] = tested on: NCI-H1734
# In short: as §1
# [13] = tested on: NCI-H1650
# In short: as §1
# [14] = tested on: EKVX
# In short: as §1
# [15] = tested on: COR-L23
# In short: as §1
# [16] = tested on: H3255
# In short: as §1
# [17] = tested on: NCI-H1563
# In short: as §1
# [18] = tested on: NCI-H2228
# In short: as §1
# [19] = tested on: NCI-H2405
# In short: as §1
# [20] = tested on: PC-3 [JPC-3]
# In short: as §1
# [21] = tested on: PC-14
# In short: as §1
compound,measurement,setting,value
O=C(O)c1ccc(-c2c[nH]c3ncc(-c4ccccc4)cc23)cc1C1CCCC1 + CC(C)C[C@H](NC(=O)[C@H](Cc1ccccc1)NC(=O)c1cnccn1)B(O)O [Bortezomib] (partner 0.002 µM),relative viability,[1]; first compound 0.04 µM,0.72
same,relative viability,[1]; first compound 0.1265 µM,0.791
same,relative viability,[1]; first compound 0.4 µM,0.82
same,relative viability,[1]; first compound 1.265 µM,0.935
same,relative viability,[2]; first compound 0.04 µM,0.911
same,relative viability,[2]; first compound 0.1265 µM,1.17
same,relative viability,[2]; first compound 0.4 µM,0.883
same,relative viability,[2]; first compound 1.265 µM,0.792
same,relative viability,[3]; first compound 0.04 µM,0.982
same,relative viability,[3]; first compound 0.1265 µM,1.18
same,relative viability,[3]; first compound 0.4 µM,1.02
same,relative viability,[3]; first compound 1.265 µM,0.884
same,relative viability,[4]; first compound 0.04 µM,1.25
same,relative viability,[4]; first compound 0.1265 µM,1.32
same,relative viability,[4]; first compound 0.4 µM,1.33
same,relative viability,[4]; first compound 1.265 µM,1.23
same,relative viability,[5]; first compound 0.04 µM,0.567
same,relative viability,[5]; first compound 0.1265 µM,0.717
same,relative viability,[5]; first compound 0.4 µM,0.482
same,relative viability,[5]; first compound 1.265 µM,0.327
same,relative viability,[6]; first compound 0.04 µM,1.18
same,relative viability,[6]; first compound 0.1265 µM,1.29
same,relative viability,[6]; first compound 0.4 µM,1.22
same,relative viability,[6]; first compound 1.265 µM,1.04
same,relative viability,[7]; first compound 0.04 µM,0.264
same,relative viability,[7]; first compound 0.1265 µM,0.299
same,relative viability,[7]; first compound 0.4 µM,0.274
same,relative viability,[7]; first compound 1.265 µM,0.251
same,relative viability,[8]; first compound 0.04 µM,0.523
same,relative viability,[8]; first compound 0.1265 µM,0.683
same,relative viability,[8]; first compound 0.4 µM,0.446
same,relative viability,[8]; first compound 1.265 µM,0.238
same,relative viability,[9]; first compound 0.04 µM,0.985
same,relative viability,[9]; first compound 0.1265 µM,1.05
same,relative viability,[9]; first compound 0.4 µM,1.08
same,relative viability,[9]; first compound 1.265 µM,0.731
same,relative viability,[10]; first compound 0.04 µM,1.12
same,relative viability,[10]; first compound 0.1265 µM,1.14
same,relative viability,[10]; first compound 0.4 µM,1.06
same,relative viability,[10]; first compound 1.265 µM,0.996
same,relative viability,[11]; first compound 0.04 µM,1.11
same,relative viability,[11]; first compound 0.1265 µM,1.09
same,relative viability,[11]; first compound 0.4 µM,0.99
same,relative viability,[11]; first compound 1.265 µM,0.722
same,relative viability,[12]; first compound 0.04 µM,1.1
same,relative viability,[12]; first compound 0.1265 µM,1.02
same,relative viability,[12]; first compound 0.4 µM,0.83
same,relative viability,[12]; first compound 1.265 µM,0.785
same,relative viability,[13]; first compound 0.04 µM,0.185
same,relative viability,[13]; first compound 0.1265 µM,0.208
same,relative viability,[13]; first compound 0.4 µM,0.205
same,relative viability,[13]; first compound 1.265 µM,0.178
same,relative viability,[14]; first compound 0.04 µM,1.01
same,relative viability,[14]; first compound 0.1265 µM,0.873
same,relative viability,[14]; first compound 0.4 µM,1.03
same,relative viability,[14]; first compound 1.265 µM,0.728
same,relative viability,[15]; first compound 0.04 µM,0.962
same,relative viability,[15]; first compound 0.1265 µM,1.16
same,relative viability,[15]; first compound 0.4 µM,0.906
same,relative viability,[15]; first compound 1.265 µM,0.622
same,relative viability,[16]; first compound 0.04 µM,1.12
same,relative viability,[16]; first compound 0.1265 µM,0.972
same,relative viability,[16]; first compound 0.4 µM,0.833
same,relative viability,[16]; first compound 1.265 µM,0.732
same,relative viability,[17]; first compound 0.04 µM,0.832
same,relative viability,[17]; first compound 0.1265 µM,0.869
same,relative viability,[17]; first compound 0.4 µM,0.907
same,relative viability,[17]; first compound 1.265 µM,0.931
same,relative viability,[18]; first compound 0.04 µM,0.908
same,relative viability,[18]; first compound 0.1265 µM,0.954
same,relative viability,[18]; first compound 0.4 µM,1.32
same,relative viability,[18]; first compound 1.265 µM,0.414
same,relative viability,[19]; first compound 0.04 µM,0.989
same,relative viability,[19]; first compound 0.1265 µM,1.03
same,relative viability,[19]; first compound 0.4 µM,0.916
same,relative viability,[19]; first compound 1.265 µM,0.819
same,relative viability,[20]; first compound 0.04 µM,0.832
same,relative viability,[20]; first compound 0.1265 µM,0.921
same,relative viability,[20]; first compound 0.4 µM,0.9
same,relative viability,[20]; first compound 1.265 µM,0.759
same,relative viability,[21]; first compound 0.04 µM,0.917
same,relative viability,[21]; first compound 0.1265 µM,0.901
same,relative viability,[21]; first compound 0.4 µM,0.891
same,relative viability,[21]; first compound 1.265 µM,0.758
